Measurements published in PMC9729294 (Scientific Reports, 2022).

Assays:
[1] = DPPH radical scavenging assay; assay type: biochemical; conditions: for DPPH radical scavenging activity (% inhibition): Standard = ascorbic acid (vitamin C)
Description: The oxidative scavenging activity of the ligand and its complexes was evaluated by DPPH (4 mg/100 ml methanol) Zengin, et al.[16]. Briefly, equal volumes of different concentrations ([…], 0.1, 0.2, 0.3, 0.4 and 0.5 mg/mL DMSO) of the tested components were added to DPPH reagent using ascorbic acid as a reference. All the investigated tests were shaken and incubated at room temperature in the dark for 30 min. The decrease in DPPH radicals was evaluated at 490 nm using an ELISA reader. Each test was performed in triplicate. The radical scavenging power was estimated as a percentage of DPPH inhibition using the equation: %inhibition=[(A \, control-A \, sample)/A \, control]×100.

[2] = Nitric oxide scavenging assay (sodium nitroprusside / Griess reagent); assay type: biochemical; conditions: Standard = ascorbic acid
Description: The nitric oxide scavenging activity of the ligand and its complexes was evaluated following a reported procedure Padmaja, et al.[17]. […] The samples were added to 150 µL Griess reagent (1% sulfanilamide and 0.1% naphthyl ethylenediamine hydrochloride in 2.5% orthophosphoric acid) and incubated at 25 °C for 30 min. The absorbance (A) was read at 540 nm using an ELISA reader. The experiment was repeated in triplicate, and ascorbic acid was used as a standard. The scavenged activity of NO was calculated using the equation %inhibition=[(A \, control-A \, sample)/A \, control]×100.

[3] = Reducing power assay (ferricyanide, absorbance at 700 nm); assay type: biochemical; conditions: Standard = ascorbic acid
Description: The reducing power capacity of the investigated compounds was evaluated by the method of Oyaizu[18]. Then, 0.5 mL of different concentrations ([…], 0.1, 0.2, 0.3, 0.4 and 0.5 mg/mL in DMSO) was added to 0.5 mL of sodium phosphate buffer (0.2 M, pH 6.6) and 0.5 mL of 1% potassium ferricyanide. The samples were incubated at 50 °C for 20 min. Then, 0.5 mL trichloroacetic acid (10%) was added and centrifuged at 3000 rpm for 15 min. The supernatant (1.0 mL) was incubated with 1.0 mL H2O2 and 0.2 mL of 1% ferric chloride for 30 min. The absorbance of the samples was measured at 700 nm. Ascorbic acid was used as a standard. An increase in the absorbance value indicates a higher reducing power.

[4] = system: red blood cell (RBC) membrane; assay: Membrane stabilization (antihemolytic) activity, hypotonic solution-induced RBC lysis; assay type: cell-based, human
Description: Anti-inflammatory activities were evaluated through the antihemolytic membrane stabilization effect of the ligand and its metal complexes using a red blood cell (RBC) membrane stabilization method. Fresh whole blood samples were collected in anticoagulant tubes from a healthy volunteer who was not treated with any nonsteroidal anti-inflammatory drugs (NSAIDs) for 2 weeks before the experiment. Erythrocytes were extracted by centrifugation at 3000 rpm for 5 min. The anticoagulated cells were washed 3 times with 0.9% saline and centrifuged at 3000 rpm for 10 min. An RBC suspension (40% v/v) was prepared using isotonic saline phosphate buffer (0.15 M NaCl and 10 mM sodium phosphate buffer, pH 7.4). One milliliter of phosphate buffer (0.15 M, pH 7.4) was added to one mL of various concentrations of the tested compounds (0.05, 0.1, 0.2, 0.3, 0.4 and 0.5 mg/mL DMSO) and 2 mL sodium chloride solution (0.25%). In the control tube, one distilled water was used instead of the tested compounds. Different concentrations of nonsteroidal anti-inflammatory drug (diclofenac potassium) were used as standards. Then, 100 µL of RBC suspension was added to each tube and incubated at room temperature for 60 min. After incubation, the samples were centrifuged for 10 min at 3000 rpm. The absorbance of the supernatant was detected at 540 nm using an ELISA reader. The inhibition of hemolysis in the samples was evaluated according to the equation: %Inhibition \, of \, hemolysis=A \, control-A \, sample/A \, control×100.

[5] = system: Acetylcholinesterase (AChE); assay: AChE inhibition (Ellman method, brain homogenate); assay type: biochemical; conditions: Standard = donepezil
Description: Acetylcholinesterase (AChE) activity was evaluated according to a previously reported method. Briefly, 10 μL of different concentrations of the tested compounds (test) or organic solvent (control) was added to 130 μL of phosphate buffer (pH 7.4, 0.1 M) and 20 μL of brain homogenate and then incubated at 37 °C for 45 min. Then, 5 μL of […] (75 mM) was added and incubated for 15 min at 37 °C. After incubation, […] of 0.32 mM DTNB was added. […] The percent inhibition of AChE was calculated as follows: %inhibition \, of \, […]=[A \, control--A \, sample/A \, control]×100.

[6] = system: Escherichia coli; assay: Antimicrobial disc diffusion, E. coli; assay type: cell-based; conditions: Nil = zero inhibition
Description: (§1) The ligand and its metal(II) complexes were evaluated for antimicrobial activity against two strains, gram-positive bacteria (Staphylococcus aureus and Staphylococcus faecalis), gram-negative bacteria (Escherichia coli and Pseudomonas aeruginosa) and pathogenic fungi (Candida albicans), using DMSO as a negative control. […] The antimicrobial activity of the tested samples was determined using a modified Kirby-Bauer disc diffusion method. All the synthesized compounds were dissolved to prepare a stock solution of 1 mg/mL using DMSO. Stock solution was aseptically transferred, and two-fold diluted to have solutions of different concentrations. The antibacterial and antifungal activities of test compounds were done by filter paper disc method[21] and the activities were determined by measuring the diameters of the inhibition zone (mm). Media with DMF was set up as a control. All cultures were routinely maintained on NA (nutrient agar) and incubated at 37 °C. The inoculums of bacteria were performed by growing the culture in NA broth at 37 °C for overnight. Approximately, 0.1 mL of diluted bacterial or fungal culture suspension was spread with the help of spreader on NA plates uniformly. Solutions of the tested compounds and reference drugs were prepared by dissolving 10 mg of the compound in 10 mL DMF. […]

[7] = system: Pseudomonas aeruginosa; assay: Antimicrobial disc diffusion, P. aeruginosa; assay type: cell-based; conditions: Nil = zero inhibition
Description: as §1

[8] = system: Staphylococcus aureus; assay: Antimicrobial disc diffusion, S. aureus; assay type: cell-based; conditions: Nil = zero inhibition
Description: as §1

[9] = system: Staphylococcus faecalis; assay: Antimicrobial disc diffusion, S. faecalis; assay type: cell-based; conditions: Nil = zero inhibition
Description: as §1

[10] = system: Candida albicans; assay: Antifungal disc diffusion, C. albicans; assay type: cell-based; conditions: Nil = zero inhibition
Description: as §1

[11] = Homo sapiens, Erythrocyte, read-out: Inhibition of RBC hemolysis (membrane stabilization)

**Q.** With `Oc1ccc2ccccc2c1/C=N/c1ccc(Cc2ccc(/N=C/c3c(O)ccc4ccccc34)cc2)cc1` [Ligand] as the molecule, how does the “DPPH radical scavenging activity (% inhibition)” value ([1]; 0.05 mg/mL) read?
**A.** 11.5 ± 0.95%

**Q.** And the “DPPH radical scavenging activity (% inhibition)” value ([1]; 0.1 mg/mL)?
**A.** 17.53 ± 0.85%

**Q.** And the “DPPH radical scavenging activity (% inhibition)” value ([1]; 0.2 mg/mL)?
**A.** 25.33 ± 0.81%

**Q.** What about the “DPPH radical scavenging activity (% inhibition)” value ([1]; 0.3 mg/mL) of the same molecule?
**A.** 31.13 ± 0.65%

**Q.** What about the “DPPH radical scavenging activity (% inhibition)” value ([1]; 0.4 mg/mL) of the same molecule?
**A.** 38.83 ± 0.81%

**Q.** What about the “DPPH radical scavenging activity (% inhibition)” value ([1]; 0.5 mg/mL) of the same molecule?
**A.** 44.43 ± 0.70%

**Q.** What about the “NO scavenging (% inhibition)” value ([2]; 0.05 mg/mL) of the same molecule?
**A.** 15.8 ± 0.78%

**Q.** What about the “NO scavenging (% inhibition)” value ([2]; 0.1 mg/mL) of the same molecule?
**A.** 21.37 ± 1.38%

**Q.** And the “NO scavenging (% inhibition)” value ([2]; 0.2 mg/mL)?
**A.** 27.13 ± 1.58%

**Q.** What about the “NO scavenging (% inhibition)” value ([2]; 0.3 mg/mL) of the same molecule?
**A.** 37.27 ± 0.97%

**Q.** And the “NO scavenging (% inhibition)” value ([2]; 0.4 mg/mL)?
**A.** 42.7 ± 1.78%

**Q.** And the “NO scavenging (% inhibition)” value ([2]; 0.5 mg/mL)?
**A.** 47.65 ± 1.49%

**Q.** And the “Reducing power (absorbance at 700 nm)” value ([3]; 0.05 mg/mL)?
**A.** 0.10 ± 0.01

**Q.** What about the “Reducing power (absorbance at 700 nm)” value ([3]; 0.1 mg/mL) of the same molecule?
**A.** 0.13 ± 0.001

**Q.** What about the “Reducing power (absorbance at 700 nm)” value ([3]; 0.2 mg/mL) of the same molecule?
**A.** 0.17 ± 0.01

**Q.** What about the “Reducing power (absorbance at 700 nm)” value ([3]; 0.3 mg/mL) of the same molecule?
**A.** 0.20 ± 0.01

**Q.** And the “Reducing power (absorbance at 700 nm)” value ([3]; 0.4 mg/mL)?
**A.** 0.23 ± 0.001

**Q.** What about the “Reducing power (absorbance at 700 nm)” value ([3]; 0.5 mg/mL) of the same molecule?
**A.** 0.29 ± 0.01

**Q.** And the inhibition at 50 µg/mL [4, 11]?
**A.** 11.8 ± 1.01%

**Q.** And the inhibition at 100 µg/mL [4, 11]?
**A.** 19.8 ± 0.75%

**Q.** And the inhibition at 200 µg/mL [4, 11]?
**A.** 26.9 ± 0.44%

**Q.** What about the inhibition at 300 µg/mL [4, 11] of the same molecule?
**A.** 32.7 ± 0.8%

**Q.** What about the inhibition at 400 µg/mL [4, 11] of the same molecule?
**A.** 38.5 ± 1.16%

**Q.** And the inhibition at 500 µg/mL [4, 11]?
**A.** 43.4 ± 0.68%

**Q.** What about the AChE percent inhibition ([5]; 0.05 mg/mL) of the same molecule?
**A.** 17.70 ± 1.04%

**Q.** What about the AChE percent inhibition ([5]; 0.1 mg/mL) of the same molecule?
**A.** 21.83 ± 1.5%

**Q.** And the AChE percent inhibition ([5]; 0.2 mg/mL)?
**A.** 27.27 ± 1.16%

**Q.** What about the AChE percent inhibition ([5]; 0.3 mg/mL) of the same molecule?
**A.** 32.90 ± 1.61%

**Q.** And the AChE percent inhibition ([5]; 0.4 mg/mL)?
**A.** 38.57 ± 1.0%

**Q.** What about the AChE percent inhibition ([5]; 0.5 mg/mL) of the same molecule?
**A.** 41.97 ± 1.08%

**Q.** What about the Inhibition zone diameter [6] of the same molecule?
**A.** Nil

**Q.** And the Inhibition zone diameter [7]?
**A.** Nil

**Q.** And the Inhibition zone diameter [8]?
**A.** Nil

**Q.** What about the Inhibition zone diameter [9] of the same molecule?
**A.** Nil

**Q.** And the Inhibition zone diameter [10]?
**A.** Nil

**Q.** For `C[C@@H]1[C@H](O)[C@@H](C)/C=C/C=C/C=C/C=C/C=C/C=C/C=C/[C@H](O[C@@H]2O[C@H](C)[C@@H](O)[C@H](N)[C@@H]2O)C[C@@H]2O[C@](O)(C[C@@H](O)C[C@@H](O)[C@H](O)CC[C@@H](O)C[C@@H](O)CC(=O)O[C@H]1C)C[C@H](O)[C@H]2C(=O)O` [Amphotericin B, reference compound], which Inhibition zone diameter [10] is on record?
**A.** 20 mm/mg sample

**Q.** Which Inhibition zone diameter [6] does the source give for `CN(C)[C@@H]1C(O)=C(C(N)=O)C(=O)[C@@]2(O)C(O)=C3C(=O)c4c(O)cccc4[C@@](C)(O)[C@H]3C[C@@H]12` [Tetracycline, reference compound] here?
**A.** 32 mm/mg sample

**Q.** And the Inhibition zone diameter [7]?
**A.** 33 mm/mg sample

**Q.** And the Inhibition zone diameter [8]?
**A.** 32 mm/mg sample

**Q.** What about the Inhibition zone diameter [9] of the same molecule?
**A.** 33 mm/mg sample

**Q.** Which “Antihemolytic activity toward RBCs IC50” value ([4]; hypotonic solution-induced lysis) does the source give for `O=C([O-])Cc1ccccc1Nc1c(Cl)cccc1Cl.[K+]` [diclofenac potassium, reference compound] here?
**A.** 0.12 mg/mL

**Q.** Which “DPPH IC50” value [1] does the source give for `O=C1O[C@H]([C@@H](O)CO)C(O)=C1O` [ascorbic acid, reference compound] here?
**A.** 0.145 mg/mL
